Results taken from patent US20050003008A1, “Method of in vivo drug targeting to solid tumors via acoustically triggered drug delivery in polymeric micelles” (priority 1997, published 2005).
In brackets after ≈: the same amount, converted by molar mass.

Legend:
[1] = tested on: MDR ovarian carcinoma A2780/ADR cells; experiment: Growth inhibition / cell kill of MDR ovarian carcinoma cells with Pluronic and ultrasound; format: cell-based; conditions: for IC75: A2780/ADR
Procedure: (§1) It should be noted that because of the cytostatic action of micelles, the inhibitory concentration IC50 values for drugs become meaningless; for example, upon 3-hour incubation with a drug-free 10% P-105 micelles followed by three days culturing in a PLURONIC-free RPMI 1640 medium, the growth inhibition of both sensitive and resistant cells exceeded 50%. […] For cases like this it would be more informative to compare, e.g., IC75 values.
As an example, when the MDR cell were incubated with drug-free 10% PLURONIC micelles for three hours, upon which they were sonicated for 10 minutes by 69-kHz ultrasound at 3.2 W/cm^2 and cultured for 72 hours, the growth of the MDR cell dropped to forty percent of the unsonicated non-incubated control.
For the MDR cells, PLURONIC and ultrasound effects are especially important. At the absence of micelles, only about forty percent of the MDR cells are killed at DOX or Rb concentrations as high as 100 μg/ml. However, when the MDR cells were incubated with 5 μg/ml DOX for three hours in the presence of a unimeric Pluronic solution followed by a 10-minute sonication by 69-kHz ultrasound at 3.2 W/cm^2, sixty six percent of the cells died upon subsequent cell culturing vs. fifty three percent without ultrasound; only fifteen percent of the MDR cells die upon incubation with 5 μg/ml DOX without Pluronic and ultrasound treatment.
Ultrasound-induced increased intracellular uptake was accompanied by a dramatic sensitization of the MDR cells to the action of DOX (FIG. 10). […] Even without ultrasound, IC50 of DOX in the MDR ovarian carcinoma cells dropped 50-fold in the presence of PLURONIC unimers and micelles.

HL-60 cells [2] = conditions: combination of micellar delivery and ultrasonication; cited from earlier work
HL-60 cells [3] = experiment: Intracellular drug uptake by HL-60 cells (lysate fluorescence); format: cell-based
Procedure: Intracellular uptake of doxorubicin and ruboxyl was measured using a fluorescence technique wherein compounds were excited at 488 nm and technical emission spectra were recorded at 510-700 nm. Two sets of samples were studied, incubated, and sonicated. Ultrasound was generated by a Sonicor SC100 sonication bath operating at 70 kHz and 37° C. Power density was controlled by adjusting the input voltage and was measured with a hydrophone.
For the first set of samples, the cells were incubated at 37° C. with doxorubicin or ruboxyl, which were either dissolved in the RPMI medium or PBS, or the drugs were solubilized in PLURONIC P-105 solutions of various concentrations. For the second set of samples, the cells were sonicated by 70 kHz ultrasound at 37° C. to assess the effect of ultrasound on the drug uptake from molecular and micellar solutions. After being incubated/sonicated with and without the drug, the cells were centrifuged, washed twice with cold PBS, resuspended in PBS, and the fluorescence spectra of cell suspensions were recorded. The fluorescence intensity of the untreated cells was subtracted from that of the drug-treated cells. Because drug fluorescence within the cells was substantially quenched, drug uptake was quantified by lysing the cells by incubating them with 1 wt % SDS solution for 1-2 hours at 37° C. This process transferred the drug from cellular components to SDS micelles. […] Upon the completion of cell lysis, fluorescence spectra of the lysates were recorded. To quantify the concentration of lysed cells, cell lysates were filtered through 0.2 μm filters, and their optical densities were measured by protein absorbance at 280 nm (OD 280 nm). […] The fluorescence intensity of lysates ws normalized by OD 280 nm.

[4] = tested on: drug-sensitive ovarian carcinoma A2780 cells; experiment: Growth inhibition of drug-sensitive ovarian carcinoma cells (IC75); format: cell-based
Procedure: as §1

[5] = Ultrasound-triggered drug release from PLURONIC P-105 micelles; format: physicochemical
Text: The measurements of the degree of drug release are based on the decrease of DOX fluorescence intensity when DOX is transferred from the hydrophobic environment of micelle cores to the aqueous environment. An argon-ion laser beam of 488 nm was directed to a drug-containing cuvette to excite fluorescence. The emissions were collected using a fiber optic collector and filtered to remove the excitation wavelength. The emissions were quantified using a photodetector, digitized with a 12-bit A/D converter, and stored in a Macintosh computer for further analysis.
Digitized fluorescence intensity data were analyzed to calculate the percent of the drug release from micelles. A fluorescence intensity of a 10 μg/ml DOX solution in PBS (IPBS) was measured first; the PBS solution was then carefully sucked out of the cuvette and replaced with a 10 μg/ml DOX solution in 10% PLURONIC P-105 micelles. Fluorescence of this solution (Imic) was measured, and a difference Imic−IPBS was assumed to correspond to a […] drug release from micelles. Then, ultrasound was switched on, and DOX fluorescence under sonication (Ius) was recorded; if sonication induced partial drug release from micelles into the aqueous environment, Ius was lower than Imic; the “ultrasound on”-“ultrasound off” cycles were repeated several times to check reproducibility. The length of each ultrasound exposure cycle was 1 to 2 minutes. […] The degree of drug release (DDR) was calculated as follows: DDR={[Imic−Ius]/[Imic−IPBS]}×100

[6] = tested on: ovarian carcinoma drug-sensitive A2780 cells; experiment: Intracellular DOX uptake by A2780 cells under 1 MHz ultrasound (flow cytometry); format: cell-based
Procedure: Fluorescence histograms of the A2780 cells incubated or sonicated in the presence of DOX are shown. The initial concentration of cells ranged from 3×10^6 to 5×10^6 cells/ml as determined using a hemacytometer. After exposure to DOX (10 μg/ml to 50 μg/ml in various experiments) and ultrasound (15 to 30 s), cells were counted again to measure the degree of sonolysis, upon which they were centrifuged, washed with PBS, fixed with a 3% formalin or 2.5% glutaraldehide, and analyzed by flow cytometry. Fluorescence histograms were recorded with a FACScan flow cytometer (Beckton Dickinson) and analyzed using CellQuest software supplied by the manufacturer. A minimum of 10,000 events was analyzed to generate each histogram.
The experiments on the effect of ultrasound on the intracellular DOX uptake with and without micelles were always conducted in parallel, at the same day and using the same batch of the cells.

A2780 cells = experiment: Survival of ovarian carcinoma-bearing mice; format: in vivo; conditions: DOX 3 mg/kg intraperitoneally in PLURONIC P-105 micelles, sonication one hour after injection
Procedure: A2780 cells (1×10^6) were inoculated intraperitoneally. DOX in PBS or PLURONIC P-105 micelles was injected intraperitoneally the next day after cell inoculation. Sonication of the abdominal region was performed one hour after DOX injection.

[7] = tested on: MDR ovarian carcinoma A2780/ADR cells; experiment: Growth inhibition / cell kill of MDR ovarian carcinoma cells with Pluronic and ultrasound; format: cell-based; conditions: 10-min sonication by 67-kHz ultrasound
A2780 tumor = experiment: In vivo DOX uptake by sonicated A2780 tumor
DNA = experiment: Drug intercalation into DNA (fluorescence drop); format: binding; conditions: drug introduced from micellar solution
Text: Ruboxyl and doxorubicin encapsulation in PLURONIC micelles restricted not only drug interaction with the cells, but also drug interaction with cell components, e.g. DNA.

[8] = tested on: breast and colon carcinomas and bone sarcoma; conditions: cited from earlier work
[9] = Effects of PLURONIC micelles and ultrasound on drug uptake and cytotoxicity, other drugs; format: cell-based
Text: It is important to note that the effects of PLURONIC micelles and ultrasound on drug uptake and cytotoxicity described above for DOX were also observed for another anthracycline drug, Ruboxyl. […] This implies that the new modality of drug delivery described here will have general applicability to a wide variety of drugs and drug delivery systems.

[10] = tested on: leukosis, La, P-388, and L-1210; solid tumors; conditions: P-388, L-1210 in mice, solid tumors in rats; cited from earlier work
[11] = Drug partitioning between PLURONIC micelles and polystyrene latex particles; format: physicochemical
Procedure: To study solute release from PLURONIC micelles, the partitioning of the solute between the micelles and the surface of polystyrene latex particles was investigated. A spin probe, DSTA, or the drug, ruboxyl, was solubilized in PLURONIC P-105 solutions of various concentrations. A suspension of polystyrene latex particles (average diameter 0.9 μm, 50 μl/ml) was incubated with 1 ml of DSTA or ruboxyl solution in PLURONIC P-105, and depletion of the probe in the supernatant was measured by the EPR (for DSTA) or fluorescence (for ruboxyl) technique upon polystyrene particle separation.
An important question pertinent to this research was how tightly the solubilized drug was associated with PLURONIC micelles. To investigate this problem, ruboxyl adsorption on polystyrene latex particles was measured from molecular solutions of ruboxyl in PBS and from micellar PLURONIC solutions. Ruboxyl readily adsorbs onto polystyrene surfaces. About 90% of the drug is transferred onto polystyrene surface from ruboxyl solutions in PBS. PLURONIC micelles, however, compete for ruboxyl with polystyrene surfaces; only about 40% of ruboxyl solubilized in PLURONIC micelles (20 wt % solutions of PLURONIC P-105) is transferred onto the polystyrene surface, the remainder being retained within the PLURONIC micelles.

[12] = absence of micelles, drug concentration 100 μg/ml
[13] = PLURONIC concentration 0.1%, below CMC
[14] = drug sequestered in dense PLURONIC P-105 micelles vs free drug

## COc1cccc2c1C(=O)c1c(O)c3c(c(O)c1C2=O)C[C@@](O)(C(=O)CO)C[C@@H]3O[C@H]1C[C@H](N)[C@H](O)[C@H](C)O1 [DOX, Doxorubicin]
[1]; 5 μg/ml DOX three hours in unimeric Pluronic solution, 10-minute sonication 69-kHz 3.2 W/cm^2
  MDR cells died: sixty six
[1]; 5 μg/ml DOX three hours in unimeric Pluronic solution, without ultrasound
  MDR cells died: fifty three
[1]; 5 μg/ml DOX without Pluronic and ultrasound treatment
  MDR cells died: fifteen
[1]; P-105 0.1% (unimers)
  IC75: 12 ± 2 µg/mL (≈ 22.1 µM)
[1]; P-105 10% (micelles)
  IC75: 16 ± 2 µg/mL (≈ 29.4 µM)
[1]; RPMI (no Pluronic)
  IC75: >100 µg/mL
[1]; PLURONIC micelle and ultrasound, DOX concentration 0.78 μg/ml
  MDR cells killed: 100%
[1]; [12]
  MDR cells killed: about forty
[1]; conventional medium, DOX 50 μg/ml
  fraction of MDR cells highly resistant to DOX: about 55%
[1]; in the presence of PLURONIC micelles
  fraction of MDR cells highly resistant to DOX: completely eliminated
[1]; presence of PLURONIC unimers and micelles, without ultrasound
  drop of IC50 of DOX: 50 fold
HL-60 cells [2]
  effective drug dose: substantial decrease
HL-60 cells [3]; [13]
  drug uptake by HL-60 cells: somewhat enhanced
HL-60 cells [3]; [14]
  drug uptake by HL-60 cells: substantial decrease
[4]; A2780, P-105 0.1% (unimers)
  IC75: 1.3 µg/mL (≈ 2.39 µM)
[4]; A2780, P-105 10% (micelles)
  IC75: 1.3 µg/mL (≈ 2.39 µM)
[4]; A2780, RPMI (no Pluronic)
  IC75: 1.3 µg/mL (≈ 2.39 µM)
[5]; 1.0-MHz ultrasound
  power density required for 10% DOX release: 7.2 W/cm^2
[5]; 20-kHz ultrasound
  power density required for 10% DOX release: 0.058 W/cm^2
[5]; 67-kHz ultrasound
  power density required for 10% DOX release: 2.8 W/cm^2
[6]; sonicated 15 s vs unsonicated incubated 30 min, same DOX concentration
  DOX uptake, sonicated vs unsonicated cells: significantly higher
[6]; sonication at 1 MHz, from PBS or RPMI 1640
  intracellular uptake of DOX: substantially increased
A2780 cells
  life span vs conventional drug introduction: much longer
[7]
  fraction of MDR cells highly resistant to DOX: about 30%
A2780 tumor; 3-MHz ultrasound
  DOX uptake by other organs under ultrasound: not affected
A2780 tumor; DOX 6 mg/kg intravenously, 1 MHz or 3 MHz ultrasound 1.7 W/cm2
  DOX uptake by cells of the sonicated tumor: dramatically enhanced
DNA
  drug-DNA interaction: lower drug-DNA interaction

## COc1cccc2c1C(=O)c1c(O)c3c(c(O)c1C2=O)C[C@@](O)(/C(C)=N/N=C1CC(C)(C)N(O)C(C)(C)C1)C[C@@H]3O[C@H]1C[C@H](N)[C@H](O)[C@H](C)O1.Cl [Rb, ruboxyl]
[8]; breast and colon carcinomas and bone sarcoma
  clinical efficacy: effective
[8]; clinical trials
  cardiotoxicity: reduced
[1]; P-105 10% (micelles)
  IC75: 17 ± 3 µg/mL
[1]; RPMI (no Pluronic)
  IC75: >100 µg/mL
[1]; [12]
  MDR cells killed: about forty
[9]
  effects of PLURONIC micelles and ultrasound on drug uptake and cytotoxicity: also observed
HL-60 cells [3]; [13]
  drug uptake by HL-60 cells: somewhat enhanced
HL-60 cells [3]; [14]
  drug uptake by HL-60 cells: substantial decrease
[4]; A2780, P-105 10% (micelles)
  IC75: 0.9 µg/mL
[4]; A2780, RPMI (no Pluronic)
  IC75: 1.5 µg/mL
[10]
  anti-tumor activity: high
[11]; from ruboxyl solutions in PBS
  drug transferred onto polystyrene surface: About 90%
[11]; solubilized in PLURONIC micelles (20 wt % PLURONIC P-105)
  drug transferred onto polystyrene surface: about 40%
DNA
  drug-DNA interaction: lower drug-DNA interaction

## CC(=O)O[C@H]1C(=O)[C@@]2(C)[C@H]([C@H](OC(=O)c3ccccc3)[C@]3(O)C[C@H](OC(=O)[C@H](O)[C@@H](NC(=O)c4ccccc4)c4ccccc4)C(C)=C1C3(C)C)[C@]1(OC(C)=O)CO[C@@H]1C[C@@H]2O [taxol]
[9]
  effects of PLURONIC micelles and ultrasound on drug uptake and cytotoxicity: promising results
